Results from ChEMBL document CHEMBL1201862, “PubChem BioAssay data set” (2004).
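Method: 48-hour compound exposure of cells in 96-well plates, five concentrations, linear interpolation of endpoints. At the GI50, growth is halved.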 The source made the active and inactive calls. Rule as the data show it: active = GI50 up to about 1.1 µM and inactive = higher.

Columns and labels:
Assay in all cases: growth of human tumour cells (NCI), 48 h
[1] = tested on: UACC-62
[2] = tested on: HCT-15
[3] = tested on: SNB-75
[4] = tested on: SK-MEL-2
[5] = tested on: K562
[6] = tested on: SK-OV-3
[7] = tested on: MOLT-4
[8] = tested on: COLO 205
[9] = tested on: SF-268
[10] = tested on: HL-60
[11] = tested on: HCT-116
[12] = tested on: OVCAR-4
[13] = tested on: UACC-257
[14] = tested on: SF-295
[15] = tested on: TK-10
[16] = tested on: RXF 393
[17] = tested on: NCI-H460
[18] = tested on: SNB-19
[19] = tested on: NCI-H522

## O=C1NC2C3CC(OCc4ccccc4)(OCc4ccccc4)C2OC3O1 (configuration not stated)
[1]
  GI50: > 50 µM (inactive)
[2]
  GI50: > 50 µM
[3]
  GI50: 48.6 µM (inactive)
[4]
  GI50: > 50 µM (inactive)
[5]
  GI50: > 50 µM (inactive)
[6]
  GI50: > 50 µM (inactive)
[7]
  GI50: > 50 µM (inactive)
[8]
  GI50: > 50 µM (inactive)
[9]
  GI50: > 50 µM (inactive)
[10]
  GI50: > 50 µM (inactive)
[11]
  GI50: > 50 µM (inactive)
[12]
  GI50: < 0.005 µM (active)
[13]
  GI50: 24.8 µM (inactive)
[14]
  GI50: > 50 µM (inactive)

## C=C1CC(C)(c2cccc(Nc3nc4ccccc4c4occc34)c2)OC1=O (configuration not stated)
[1]
  GI50: 0.65 µM (active)
[2]
  GI50: 3.52 µM
[3]
  GI50: 5.58 µM (inactive)
[6]
  GI50: 13.7 µM (inactive)
[7]
  GI50: 10.6 µM (inactive)
[8]
  GI50: 4.38 µM (inactive)
[9]
  GI50: 10.5 µM (inactive)
[10]
  GI50: 2.27 µM (inactive)
[15]
  GI50: 3.56 µM (inactive)
[11]
  GI50: 1.67 µM (inactive)
[16]
  GI50: 2.36 µM (inactive)
[17]
  GI50: 15.6 µM (inactive)
[12]
  GI50: 7.89 µM (inactive)
[13]
  GI50: 0.0218 µM (active)
[18]
  GI50: 17.2 µM (inactive)
[14]
  GI50: 16.8 µM (inactive)

## Cc1c2c(cc[n+]1C)O[B-](c1ccccc1)(c1ccccc1)O2
[1]
  GI50: 16.3 µM (inactive)
[2]
  GI50: 38.3 µM
[3]
  GI50: 22.3 µM (inactive)
[4]
  GI50: 91.2 µM (inactive)
[5]
  GI50: 46 µM (inactive)
[6]
  GI50: 94 µM (inactive)
[7]
  GI50: 35.5 µM (inactive)
[8]
  GI50: 32.6 µM (inactive)
[9]
  GI50: > 100 µM (inactive)
[10]
  GI50: 35.1 µM (inactive)
[15]
  GI50: 55.2 µM (inactive)
[11]
  GI50: 46.7 µM (inactive)
[16]
  GI50: 52.1 µM (inactive)
[17]
  GI50: 50 µM (inactive)
[19]
  GI50: 36.8 µM (inactive)
[12]
  GI50: 64.4 µM (inactive)
[13]
  GI50: 55.5 µM (inactive)
[14]
  GI50: 53.6 µM (inactive)

## CC(NC(=O)OCc1ccccc1)NC(=O)C(CC(=O)OC(C)(C)C)NC(=O)OC(C)(C)C (configuration not stated)
[1]
  GI50: > 100 µM (inactive)
[2]
  GI50: > 100 µM
[3]
  GI50: > 100 µM (inactive)
[4]
  GI50: > 100 µM (inactive)
[5]
  GI50: > 100 µM (inactive)
[6]
  GI50: > 100 µM (inactive)
[7]
  GI50: > 100 µM (inactive)
[8]
  GI50: > 100 µM (inactive)
[9]
  GI50: 98.4 µM (inactive)
[15]
  GI50: > 100 µM (inactive)
[11]
  GI50: > 100 µM (inactive)
[16]
  GI50: > 100 µM (inactive)
[17]
  GI50: > 100 µM (inactive)
[19]
  GI50: > 100 µM (inactive)
[12]
  GI50: > 100 µM (inactive)
[13]
  GI50: > 100 µM (inactive)
[18]
  GI50: > 100 µM (inactive)
[14]
  GI50: > 100 µM (inactive)

## CCOC(=O)c1[nH]c2nc(SC)nc(NC)c2c1N
[1]
  GI50: 85.7 µM (inactive)
[2]
  GI50: 84.1 µM
[3]
  GI50: 70.5 µM (inactive)
[4]
  GI50: > 100 µM (inactive)
[5]
  GI50: 90.2 µM (inactive)
[6]
  GI50: > 100 µM (inactive)
[7]
  GI50: 68.2 µM (inactive)
[8]
  GI50: > 100 µM (inactive)
[9]
  GI50: > 100 µM (inactive)
[15]
  GI50: > 100 µM (inactive)
[11]
  GI50: > 100 µM (inactive)
[16]
  GI50: > 100 µM (inactive)
[17]
  GI50: 60.4 µM (inactive)
[19]
  GI50: 51.4 µM (inactive)
[12]
  GI50: > 100 µM (inactive)
[13]
  GI50: > 100 µM (inactive)
[18]
  GI50: > 100 µM (inactive)
[14]
  GI50: > 100 µM (inactive)

## COC1O[C@@H]2COC(C)(C)O[C@@H]2C(=O)N1Nc1ccc([N+](=O)[O-])cc1 (some centres not stated)
[1]
  GI50: > 100 µM (inactive)
[2]
  GI50: > 100 µM
[3]
  GI50: > 100 µM (inactive)
[4]
  GI50: > 100 µM (inactive)
[5]
  GI50: > 100 µM (inactive)
[6]
  GI50: > 100 µM (inactive)
[7]
  GI50: > 100 µM (inactive)
[8]
  GI50: > 100 µM (inactive)
[9]
  GI50: > 100 µM (inactive)
[10]
  GI50: > 100 µM (inactive)
[15]
  GI50: > 100 µM (inactive)
[11]
  GI50: > 100 µM (inactive)
[16]
  GI50: > 100 µM (inactive)
[17]
  GI50: > 100 µM (inactive)
[12]
  GI50: > 100 µM (inactive)
[13]
  GI50: > 100 µM (inactive)
[18]
  GI50: > 100 µM (inactive)
[14]
  GI50: > 100 µM (inactive)

## COc1ccc(C2=NC(CO)[C@H](c3ccccc3)O2)cc1OC (some centres not stated)
[1]
  GI50: 53.6 µM (inactive)
[2]
  GI50: > 100 µM
[3]
  GI50: > 100 µM (inactive)
[4]
  GI50: > 100 µM (inactive)
[5]
  GI50: > 100 µM (inactive)
[6]
  GI50: 96.4 µM (inactive)
[7]
  GI50: > 100 µM (inactive)
[8]
  GI50: > 100 µM (inactive)
[9]
  GI50: > 100 µM (inactive)
[10]
  GI50: > 100 µM (inactive)
[11]
  GI50: > 100 µM (inactive)
[17]
  GI50: > 100 µM (inactive)
[19]
  GI50: > 100 µM (inactive)
[12]
  GI50: > 100 µM (inactive)
[13]
  GI50: > 100 µM (inactive)
[18]
  GI50: > 100 µM (inactive)
[14]
  GI50: > 100 µM (inactive)

## CC(C)(Sc1cc(C(C)(C)C)c(O)c(C(C)(C)C)c1)Sc1cc(C(C)(C)C)c(O)c(C(C)(C)C)c1 [PROBUCOL]
[1]
  GI50: > 100 µM (inactive)
[2]
  GI50: > 100 µM
[3]
  GI50: > 100 µM (inactive)
[4]
  GI50: > 100 µM (inactive)
[5]
  GI50: 1.81 µM (inactive)
[6]
  GI50: > 100 µM (inactive)
[8]
  GI50: > 100 µM (inactive)
[9]
  GI50: 52.8 µM (inactive)
[10]
  GI50: 1.49 µM (inactive)
[15]
  GI50: > 100 µM (inactive)
[11]
  GI50: > 100 µM (inactive)
[16]
  GI50: 79.6 µM (inactive)
[17]
  GI50: > 100 µM (inactive)
[19]
  GI50: > 100 µM (inactive)
[12]
  GI50: > 100 µM (inactive)
[13]
  GI50: > 100 µM (inactive)
[18]
  GI50: > 100 µM (inactive)
[14]
  GI50: > 100 µM (inactive)
